According to article PMC2914685 (Analytical biochemistry, 2010):
No end group written: not given here.

Experiments:
Abl SH3 domain [1] = target: T1, Abl SH3 domain (Homo sapiens, UniProt P00519); conditions: computationally predicted from the human proteome; ref [30]; [31] (Personal communication); cited from earlier work
Abl SH3 domain [2] = target: T1, Abl SH3 domain; assay: Tetracycline repressor-based mammalian two-hybrid assay; type: cell-based; conditions: HEK 293 cells, 48 hours post-transfection, fluorescence microscopy, Figure 2
Abl SH3 domain (SH3-His) = assay: Abl SH3 domain Western blot-type detection; type: binding, human; conditions: fluorescence under UV 365 nm, estimated, data not shown
SH3-His = SH3-His (human, UniProt P00519 61-121); assay: fluorescence polarisation
Sequence of SH3-His (P00519 61-121): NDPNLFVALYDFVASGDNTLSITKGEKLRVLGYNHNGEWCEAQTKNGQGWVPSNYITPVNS

T1 sequence (P00519 61-121 limits assumed): as the sequence (P00519 61-121) above

Row | Molecule | predicted binding to Abl SH3 domain (Abl SH3 domain [1]) | interaction with Abl SH3 domain in vivo (AcGFP expression) (Abl SH3 domain [2]) | other results
1 | AAAMQKPSLP [BOT1] | non-binding peptide |  | 
2 | APAFPPPSPP [TOP1] | binding peptide | positive interaction | 
3 | MGAGAPAFPPPSPP@EF-(GFP)-His6 [TOP1-DOPA-GFP] |  |  | lowest limit of detection of SH3-His (Abl SH3 domain (SH3-His)): about 0.5 μg
4 | TetR-BOT1: TetR with dimerization domain replaced with BOT1 (AAAMQKPSLP; also: insert only, fused into TetR protein) |  | does not bind to TetR-SH3 | 
5 | APAFPPPSPP (also: FITC label, position not given here) [TOP1-FITC] |  |  | Kd (SH3-His): 16 ± 1 µM
